For 14 compounds, IC50 results are on record in US9771333B2, “Quinazoline derivatives as TAM family kinase inhibitors” (SIGNALCHEM LIFESCIENCES CORP., priority 2013, dated 2017).

What all share (type): biochemical
In one test the target is T1, human Tyro3 (Homo sapiens, UniProt Q06418).
T1 construct: GST (N); made in house; host or cells: Sf9 insect cells (baculovirus)
T1 sequence (Q06418 455-890 limits assumed): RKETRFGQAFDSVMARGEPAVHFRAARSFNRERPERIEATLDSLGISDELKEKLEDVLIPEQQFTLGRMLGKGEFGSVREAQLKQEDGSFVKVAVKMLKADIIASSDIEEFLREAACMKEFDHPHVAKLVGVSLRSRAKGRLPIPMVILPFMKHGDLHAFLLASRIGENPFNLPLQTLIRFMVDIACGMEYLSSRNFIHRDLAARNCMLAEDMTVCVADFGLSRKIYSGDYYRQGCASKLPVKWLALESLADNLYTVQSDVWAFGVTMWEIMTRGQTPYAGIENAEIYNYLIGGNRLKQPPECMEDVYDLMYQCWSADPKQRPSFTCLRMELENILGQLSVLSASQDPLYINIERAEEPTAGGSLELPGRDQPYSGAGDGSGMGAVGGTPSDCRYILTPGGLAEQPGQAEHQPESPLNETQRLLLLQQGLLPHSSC
The experiment in a line: Kinase enzymatic activity assay (33P-radiolabeled phosphate transfer), Tyro3. As to conditions: recombinant human Tyro3 (455-end), poly(4:1 glu:tyr) substrate, 30 minutes. The text has this: (§1) The identification of compounds of the invention as Tyro3, Axl or Mer inhibitors was readily accomplished using the recombinant human Tyro3, Axl and Mer proteins and employing the ^33P-radiolabeled phosphate transfer assay for which the procedure is known to someone skilled in the art or as described in Example 9.
(§2) Recombinant human Tyro3 (455-end, the gene accession number NM_006293), human Axl (473-end, the gene accession number NM_021913) and human Mer (578-872, the gene accession number NM_006343) were independently expressed by baculovirus in Sf9 insect cells using an N-terminal GST tag. The recombinant proteins were stored at −70° C. in a medium containing 50 mM Tris-HCl, pH 7.5, 150 mM NaCl, 10 mM glutathione, 0.1 mM EDTA, 0.25 mM DTT, 0.1 mM PMSF and 25% glycerol. The recombinant proteins were aliquoted into smaller quantities after centrifugation to avoid repeated handling and multiple freeze/thaw cycles for the most favorable performance.
(§3) Kinase Assay Buffer: This buffer solution consisted of the following components: 25 mM MOPS, pH 7.2, 12.5 mM β-glycerol-phosphate, 25 mM MgCl2, 5 mM EGTA, 2 mM EDTA and DTT 0.25 mM which was added prior to use.
(§4) Kinase Dilution Buffer: Kinase Assay Buffer was diluted at a 1:4 ratio (5× dilution) with distilled water.
(§5) [^33P]-ATP assay cocktail: In a designated radioactive working area, a 250 μM [^33P]-ATP assay cocktail was prepared by the addition of the following components: 150 μL of 10 mM ATP stock solution, 100 μL [^33P]-ATP (1 mci/100 μL), and 5.75 mL of kinase assay buffer. This solution was stored in 1 mL aliquots at −20° C.
(§6) ATP stock solution (10 mM): The ATP stock solution was prepared by dissolving 55 mg of ATP in 10 mL of kinase assay buffer. It was stored in 200 μL aliquots at −20° C.
(§7) Active Kinase Stock Solution: The active recombinant kinase protein (0.1 μg/μL) was diluted with Kinase Dilution Buffer and the activity was assayed using a serial dilution method. The specific activity is expressed in nmoL/min/mg.
(§8) Substrates: poly(4:1 glu:tyr) is the substrate used for each kinase Tyro3, Axl and Mer: The peptide substrate was dissolved in water to give the final concentration of 1 mg/mL.
(§9) Test compound solution: Test compound was dissolved in DMSO to obtain a 10 mM solution. The assay solution was prepared by adding 5 μL of this solution to […] of 10% DMSO/water to obtain the final concentration of 50 μM.
(§10) The enzymatic activity of all three kinases was determined as follows. Using a 96-well plate, the wells were divided into three categories: Blank wells, […] and Test wells. In Test wells, 5 μL of the test compound solution and 5 μL of the substrate solution were added. In Control wells, 5 μL of 10% DMSO/water and 5 μL of the substrate solution were added. In Blank wells, 10 μL of 10% DMSO/water was added. To each well was added 10 μL of Active Kinase Stock Solution to make up the volume in each well to 20 μL. All test samples, controls and blanks were run in duplicate. The reaction was initiated by the addition of 5 μL of [^33P]-ATP assay cocktail, bringing the final volume up to 25 μL in every well. The mixture was incubated at room temperature for 30 minutes. The reaction was terminated by transferring 10 μL of the reaction mixture into a Millipore MultiScreen filter plate (cat. number MSPHN6B50). The filter plate was washed in a 1% phosphoric acid solution with constant gentle shaking for 15 minutes and this step was repeated once. After the plate was dried in air, scintillation fluid was added to each well and the radioactivity in each well in CPM was counted by a Microbeta TriLux. The corrected CPM in each test well was determined by subtracting the average value of Blank well values. Percentage of inhibition of the kinase enzymatic activity by the test compound was determined using the following formula: […]
(§11) The IC50 values were determined in a similar way following a serial dilution of the test compound. […]

For the next test, the target named is T2, human Axl (Homo sapiens, UniProt P30530).
T2 construct: GST (N); made in house; host or cells: Sf9 insect cells (baculovirus)
T2 sequence (P30530 473-894 limits assumed): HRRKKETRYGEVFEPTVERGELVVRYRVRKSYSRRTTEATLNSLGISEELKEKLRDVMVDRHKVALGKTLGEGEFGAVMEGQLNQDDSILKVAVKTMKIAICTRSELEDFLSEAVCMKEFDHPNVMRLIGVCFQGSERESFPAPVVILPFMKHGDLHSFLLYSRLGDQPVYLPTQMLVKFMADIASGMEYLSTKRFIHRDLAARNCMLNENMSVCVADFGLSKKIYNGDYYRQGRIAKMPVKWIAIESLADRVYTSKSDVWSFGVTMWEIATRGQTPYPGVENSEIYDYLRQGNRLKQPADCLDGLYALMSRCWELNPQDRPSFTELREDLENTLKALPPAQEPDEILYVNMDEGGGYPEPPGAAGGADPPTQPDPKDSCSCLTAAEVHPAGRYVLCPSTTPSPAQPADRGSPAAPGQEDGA
The experiment in a line: Kinase enzymatic activity assay (33P-radiolabeled phosphate transfer), Axl. As to conditions: recombinant human Axl (473-end), poly(4:1 glu:tyr) substrate, 30 minutes.
From the text: as §1, §2, §3, §4, §5, §6, §7, §8, §9, §10, §11

The target of another test is T3, human Mer (Homo sapiens, UniProt Q12866).
T3 construct: GST (N); made in house; host or cells: Sf9 insect cells (baculovirus)
T3 sequence (Q12866 578-872): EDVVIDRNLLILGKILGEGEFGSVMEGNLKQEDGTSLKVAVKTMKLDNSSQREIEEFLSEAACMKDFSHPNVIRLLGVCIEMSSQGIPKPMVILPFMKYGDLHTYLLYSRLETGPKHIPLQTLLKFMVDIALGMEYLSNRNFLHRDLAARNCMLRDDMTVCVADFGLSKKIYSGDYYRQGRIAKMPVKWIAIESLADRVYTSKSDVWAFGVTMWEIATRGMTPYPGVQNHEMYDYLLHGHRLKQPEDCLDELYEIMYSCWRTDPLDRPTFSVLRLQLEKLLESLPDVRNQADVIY
The experiment in a line: Kinase enzymatic activity assay (33P-radiolabeled phosphate transfer), Mer. Particulars: recombinant human Mer (578-872), poly(4:1 glu:tyr) substrate, 30 minutes.
From the text: as §1, §2, §3, §4, §5, §6, §7, §8, §9, §10, §11

Take `COCCOc1cc(OCCN2CCN(C)CC2)cc2ncnc(Sc3cc(Cl)cc(Cl)c3)c12` [Example 4.2, 4-((3,5-dichlorophenyl)thio)-5-(2-methoxyethoxy)-7-(2-(4-methylpiperazin-1-yl)ethoxy)quinazoline]: the IC50 is 1000 to 10000 nM at human Tyro3, 1000 to 10000 nM at human Axl and over 10000 nM on human Mer.
`CN1CCC(COc2cc(OC3CCOCC3)c3c(Nc4cc(C(F)(F)F)no4)ncnc3c2)CC1` [Example 2.58, N-(7-((1-methylpiperidin-4-yl)methoxy)-5-((tetrahydro-2H-pyran-4-yl)oxy)quinazolin-4-yl)-3-(trifluoromethyl)isoxazol-5-amine]: the IC50 at human Tyro3 was over 10000 nM; on human Axl it was 500 to 1000 nM; on human Mer, 1000 to 10000 nM.
For `CN1CCC(COc2cc(OC3CCOCC3)c3c(Sc4nncs4)ncnc3c2)CC1` [Example 2.47, 2-((7-((1-methylpiperidin-4-yl)methoxy)-5-((tetrahydro-2H-pyran-4-yl)oxy)quinazolin-4-yl)thio)-1,3,4-thiadiazole], in that order: 1000 to 10000 nM, under 500 nM and 1000 to 10000 nM.
Turning to `COCCOc1cc(OCCN2CCN(C)CC2)cc2ncnc(Sc3ccc(Cl)cc3Cl)c12` [Example 4.4, 4-((2,4-dichlorophenyl)thio)-5-(2-methoxyethoxy)-7-(2-(4-methylpiperazin-1-yl)ethoxy)quinazoline], the IC50 at human Tyro3 was 1000 to 10000 nM; on human Axl it was 1000 to 10000 nM; on human Mer it was over 10000 nM.
Consider `Cc1nnc(Nc2ncnc3cc(OCC4CCN(C)CC4)cc(OC4CCOCC4)c23)s1` [Example 2.36, 5-methyl-N-(7-((1-methylpiperidin-4-yl)methoxy)-5-((tetrahydro-2H-pyran-4-yl)oxy)quinazolin-4-yl)-1,3,4-thiadiazol-2-amine], for which the IC50 on human Tyro3 was over 10000 nM; on human Axl, 1000 to 10000 nM; at human Mer it was 1000 to 10000 nM.
Consider `COc1cc(OC2CCOCC2)c2c(Oc3ccc(F)cc3Cl)ncnc2c1` [Example 3.1, 4-(2-chloro-4-fluorophenoxy)-7-methoxy-5-((tetrahydro-2H-pyran-4-yl)oxy)quinazoline], for which the IC50 is 500 to 1000 nM at human Tyro3, over 10000 nM on human Axl and 500 to 1000 nM at human Mer.
For the compound `CN(C)CCN(C)CCOc1cc(OC2CCOCC2)c2c(Oc3ccc(F)cc3Cl)ncnc2c1` [Example 2.15, N^1-(2-((4-(2-chloro-4-fluorophenoxy)-5-((tetrahydro-2H-pyran-4-yl)oxy)quinazolin-7-yl)oxy)ethyl)-N^1,N^2,N^2-trimethylethane-1,2-diamine], the IC50 on human Tyro3 is 500 to 1000 nM; at human Axl, 1000 to 10000 nM; at human Mer it was 500 to 1000 nM.
For `COc1cc(OCC2CCN(C)CC2)cc2ncnc(Nc3nc(C(F)(F)F)cs3)c12` [Example 2.13, N-(5-methoxy-7-((1-methylpiperidin-4-yl)methoxy)quinazolin-4-yl)-4-(trifluoromethyl)thiazol-2-amine], the IC50 was over 10000 nM on human Tyro3, under 500 nM on human Axl and over 10000 nM on human Mer.
As for `CN1CCC(COc2cc(OC3CCOCC3)c3c(Sc4nc(C(F)(F)F)cs4)ncnc3c2)CC1` [Example 2.50, 2-((7-((1-methylpiperidin-4-yl)methoxy)-5-((tetrahydro-2H-pyran-4-yl)oxy)quinazolin-4-yl)thio)-4-(trifluoromethyl)thiazole], the results for the concentration for half-maximal inhibition (IC50) at human Tyro3, at human Axl and at human Mer were over 10000 nM, 500 to 1000 nM and 1000 to 10000 nM, respectively.
The corresponding values for `CN1CCN(CCCOc2cc(OC3CCOCC3)c3c(Oc4ccc(F)cc4Cl)ncnc3c2)CC1` [Example 2.63, 4-(2-chloro-4-fluorophenoxy)-7-(3-(4-methylpiperazin-1-yl)propoxy)-5-((tetrahydro-2H-pyran-4-yl)oxy)quinazoline] are under 500 nM, under 500 nM and under 500 nM.
For `COC(=O)Cc1cccc(Oc2ncnc3cc(OCCN4CCN(C)CC4)cc(OC4CCOCC4)c23)c1` [Example 2.31, methyl 2-(3-((7-(2-(4-methylpiperazin-1-yl)ethoxy)-5-((tetrahydro-2H-pyran-4-yl)oxy)quinazolin-4-yl)oxy)phenyl)acetate], in that order: 500 to 1000 nM, 1000 to 10000 nM and over 10000 nM.
For `CN1CCC(COc2cc(OC3CCOCC3)c3c(Oc4ccc(C(F)(F)F)cc4)ncnc3c2)CC1` [Example 4.11, 7-((1-methylpiperidin-4-yl)methoxy)-5-((tetrahydro-2H-pyran-4-yl)oxy)-4-(4-(trifluoromethyl)phenoxy)quinazoline], in that order: under 500 nM, under 500 nM and 500 to 1000 nM.
In the case of `CN(C)CCOCCOc1cc(OC2CCOCC2)c2c(Nc3nc(C(F)(F)F)cs3)ncnc2c1` [Example 2.56, N-(7-(2-(2-(dimethylamino)ethoxy)ethoxy)-5-((tetrahydro-2H-pyran-4-yl)oxy)quinazolin-4-yl)-4-(trifluoromethyl)thiazol-2-amine], the results for the IC50 at human Tyro3, on human Axl and on human Mer were over 10000 nM, under 500 nM and 1000 to 10000 nM, respectively.
Take `COc1cc(N2CCN(C)CC2)cc2ncnc(Nc3nc(C(F)(F)F)cs3)c12` [Example 2.25, N-(5-methoxy-7-(4-methylpiperazin-1-yl)quinazolin-4-yl)-4-(trifluoromethyl)thiazol-2-amine]: the IC50 was over 10000 nM on human Tyro3, 500 to 1000 nM at human Axl and over 10000 nM on human Mer.

By IC50 is commonly meant the concentration at which inhibition is half-maximal.
